According to patent US10897901B2, “Herbicidal composition” (FMC Corporation, priority 2007, dated 2021):

Columns and labels:
Format in all cases: in vivo
[1] = tested on: Smooth Crabgrass (Digitaria ischaemum); experiment: Example 1 post-emergent turf plot test, 3 leaf/2 tiller crabgrass; conditions: 0.57 lb ai/acre
Protocol: (§1) The experimental design used randomized plots with post-emergent treatment and three replications per test trial. The size of each experimental plot was 4 feet by 6 feet. The application of each test composition was performed with pressurized back-pack sprayers, calibrated to spray 200 gallons per acre. Test compositions containing sulfentrazone (DISMISS™ Turf Herbicide), quniclorac, (FACET® 75 DF herbicide) or a mixture of sulfentrazone and quinclorac in a 1:3 ratio, prepared as described above, were diluted with water to provide the appropriate test rate concentrations.
(§2) The control of weeds was evaluated in each experimental plot from 7 to 41 days after treatment (DAT) of each test rate. The results, shown as an average of the replications, were compared with results observed in untreated control plots in the same trials.

[2] = tested on: Field Violet (Viola arvensis); experiment: Example 1 post-emergent turf plot test, violet; conditions: 0.57 lb ai/acre
Protocol: as §1, §2

[3] = tested on: White Clover (Trifolium repens); experiment: Example 1 post-emergent turf plot test, clover; conditions: 0.57 lb ai/acre
Protocol: as §1, §2

[4] = tested on: Yellow Nutsedge (Cyperus esculentus); experiment: Example 1 post-emergent turf plot test, nutsedge; conditions: 0.57 lb ai/acre
Protocol: as §1, §2

[5] = tested on: White Clover (Trifolium repens); experiment: Example 2 post-emergent turf plot test, clover; conditions: 0.57 lb ai/acre
Protocol: as §1, with “quinclorac,” for “quniclorac,”, “one to three” for “1:3”
(§3) The control of weeds was evaluated in each experimental plot from 1 to 27 days after treatment (DAT) of each test rate. The results, shown as an average of the replications, were compared with results observed in untreated control plots in the same trials.

[6] = tested on: Blackseed Plantain (Plantago rugelii); experiment: Example 2 post-emergent turf plot test, plantain; conditions: 0.57 lb ai/acre
Protocol: as §1, with “quinclorac,” for “quniclorac,”, “one to three” for “1:3”
as §3

[7] = tested on: crabgrass (Digitaria sp); experiment: Example 4 post-emergence greenhouse pot test, crabgrass; conditions: 0.25 lb ai/acre
Protocol: (§4) Test compositions containing sulfentrazone (75 DF formulation), quniclorac, (DRIVE® 75 DF Herbicide) or mixtures of sulfentrazone and quinclorac at ratios of 1:1 to 1:5, were diluted with water to provide the appropriate test rate concentrations. A nonionic surfactant (0.25%) was added to each test solution. The test weeds include crabgrass (Digitaria sp), Chickweed (Stellaria media), Hemp Sesbania (Sesbania exaltata), Kochia (Kochia scoparia), Ivyleaf Morningglory (Ipomoea hederacea), Redroot Pigweed (Amaranthus retroflexus) and yellow nutsedge (Cyperus esculentusi).
(§5) For post-emergence testing, three disposable 3 inch square pots for each rate of application of each herbicide were filled with a soil, comprised of peat moss, vermiculite, bark ash, pine bark, limestone and a wetting agent, to which 8 to 10 seeds were planted. The pots were placed in a greenhouse and watered daily, thus allowing the seeds to germinate and the foliage to develop for 22 days, 3 months for Kochia.
(§6) Pots designated for treatment were placed on a conveyor belt and the conveyor belt fed under a spray nozzle mounted about ten inches above the foliage. The spray of herbicidal solution was commenced and once stabilized; the pots were passed under the spray at a speed to receive a coverage equivalent of 30 gallons per acre. The application rates are those shown in Table 4 below for the individual herbicidal solutions and the mixture of sulfentrazone and quinclorac. The post-emergence pots were immediately placed in the green-house and not watered until 24 hours after treatment with the test solution. Thereafter they were regularly watered at ground level. The control of weeds was evaluated in each experimental test from 2 to 20 days after treatment (DAT). The results, shown as an average of the replications, were compared with results observed in untreated control pots in the same tests.
(§7) Percent control was determined by a method similar to the 0 to 100 rating system disclosed in “Research Methods in Weed Science,” 2nd ed., B. Truelove, Ed.; Southern Weed Science Society; Auburn University, Auburn, Ala., 1977.

[8] = tested on: Kochia (Kochia scoparia); experiment: Example 4 post-emergence greenhouse pot test, kochia; conditions: 0.25 lb ai/acre
Protocol: as §4, §5, §6, §7

[9] = tested on: Ivyleaf Morningglory (Ipomoea hederacea); experiment: Example 4 post-emergence greenhouse pot test, morningglory; conditions: 0.25 lb ai/acre
Protocol: as §4, §5, §6, §7

[10] = tested on: Redroot Pigweed (Amaranthus retroflexus); experiment: Example 4 post-emergence greenhouse pot test, pigweed; conditions: 0.25 lb ai/acre
Protocol: as §4, §5, §6, §7

With Cc1nn(-c2cc(NS(C)(=O)=O)c(Cl)cc2Cl)c(=O)n1C(F)F [A, N-[2,4-dichloro-5-[4-(difluoromethyl)-4,5-dihydro-3-methyl-5-oxo-1H-1,2,4-triazol-1-yl]phenyl]methanesulfonamide] the “Percent Control” value ([1]; 7 DAT) was 70%, the “Percent Control” value ([1]; 14 DAT) was 78% and the “Percent Control” value ([1]; 21 DAT) was 86%. The “Percent Control” value ([1]; 28 DAT) was 75%, the “Percent Control” value ([1]; 41 DAT) was 71% and the “Percent Control” value ([2]; 7 DAT) was 64%. The “Percent Control” value ([2]; 14 DAT) was 75%, the “Percent Control” value ([2]; 21 DAT) was 76% and the “Percent Control” value ([2]; 28 DAT) was 70%. The “Percent Control” value ([2]; 41 DAT) was 75%, the “Percent Control” value ([3]; 7 DAT) was 59% and the “Percent Control” value ([3]; 14 DAT) was 63%. The “Percent Control” value ([3]; 21 DAT) was 59%, the “Percent Control” value ([3]; 28 DAT) was 52% and the “Percent Control” value ([4]; 7 DAT) was 50%. For the same compound, the “Percent Control” value ([4]; 14 DAT) was 75%, the “Percent Control” value ([4]; 21 DAT) was 89% and the “Percent Control” value ([4]; 28 DAT) was 91%. The “Percent Control” value ([5]; 7 DAT) was 45%, the “Percent Control” value ([5]; 14 DAT) was 74% and the “Percent Control” value ([5]; 21 DAT) was 68%. The “Percent Control” value ([6]; 7 DAT) was 100%, the “Percent Control” value ([6]; 14 DAT) was 100% and the “Percent Control” value ([6]; 21 DAT) was 100%. The Percent Control ([7]; 2 DAT) was 10%, the Percent Control ([7]; 7 DAT) was 10% and the Percent Control ([7]; 14 DAT) was 5%. The Percent Control ([7]; 20 DAT) was 5%, the Percent Control ([8]; 2 DAT) was 10% and the Percent Control ([8]; 7 DAT) was 70%. The Percent Control ([8]; 14 DAT) was 95%, the Percent Control ([8]; 20 DAT) was 99% and the Percent Control ([9]; 2 DAT) was 60%. For the same compound, the Percent Control ([9]; 7 DAT) was 80%, the Percent Control ([9]; 14 DAT) was 90% and the Percent Control ([9]; 20 DAT) was 99%. It also gave a Percent Control ([10]; 2 DAT) of 80%, a Percent Control ([10]; 7 DAT) of 95% and a Percent Control ([10]; 14 DAT) of 99%. For the same compound, the Percent Control ([10]; 20 DAT) was 90%.
